Like-named read-outs stand apart in the source and are kept apart here. Blank lines part the entries; values can stand above or below the compound they belong to.
Tests used:
[1] = system: human cell lines (HS68, HS 27, CCD18, WS1); assay: inhibition of proliferation of human cell lines under standard tissue culture conditions (collective statement)
src-kinase = src-kinase (Homo sapiens, UniProt P12931); assay: inhibition of recombinant c-src kinase; conditions: for potency on src kinase activity compared with PDGFR kinase activity: src vs PDGFR
Sequence of src-kinase (P12931 whole entry): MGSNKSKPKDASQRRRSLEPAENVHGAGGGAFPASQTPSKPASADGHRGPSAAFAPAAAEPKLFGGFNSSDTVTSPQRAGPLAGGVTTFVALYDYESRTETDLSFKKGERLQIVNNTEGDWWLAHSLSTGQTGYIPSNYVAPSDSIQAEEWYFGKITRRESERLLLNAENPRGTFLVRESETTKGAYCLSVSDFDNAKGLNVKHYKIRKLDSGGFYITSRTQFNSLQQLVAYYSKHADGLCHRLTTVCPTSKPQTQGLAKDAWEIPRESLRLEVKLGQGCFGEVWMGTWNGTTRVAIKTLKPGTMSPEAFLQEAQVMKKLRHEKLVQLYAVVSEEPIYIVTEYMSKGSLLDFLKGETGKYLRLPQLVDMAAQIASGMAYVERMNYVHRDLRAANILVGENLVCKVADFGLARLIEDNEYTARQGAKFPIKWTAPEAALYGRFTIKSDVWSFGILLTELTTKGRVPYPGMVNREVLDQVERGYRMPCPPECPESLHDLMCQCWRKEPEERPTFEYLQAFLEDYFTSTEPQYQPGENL

CCD18 cells = assay: inhibition of cell proliferation under normal tissue culture conditions, CCD18; type: cell-based; conditions: Homo sapiens, 96 h, read-out: IC50 CCD18
human FGFR-1 = target: T1, human FGFR-1 (Homo sapiens, UniProt P11362); assay: FGFR-1 autophosphorylation in CHO cells; type: cell-based
T1 construct: expressed in transfected cells; host or cells: CHO
T1 sequence (P11362 22-822): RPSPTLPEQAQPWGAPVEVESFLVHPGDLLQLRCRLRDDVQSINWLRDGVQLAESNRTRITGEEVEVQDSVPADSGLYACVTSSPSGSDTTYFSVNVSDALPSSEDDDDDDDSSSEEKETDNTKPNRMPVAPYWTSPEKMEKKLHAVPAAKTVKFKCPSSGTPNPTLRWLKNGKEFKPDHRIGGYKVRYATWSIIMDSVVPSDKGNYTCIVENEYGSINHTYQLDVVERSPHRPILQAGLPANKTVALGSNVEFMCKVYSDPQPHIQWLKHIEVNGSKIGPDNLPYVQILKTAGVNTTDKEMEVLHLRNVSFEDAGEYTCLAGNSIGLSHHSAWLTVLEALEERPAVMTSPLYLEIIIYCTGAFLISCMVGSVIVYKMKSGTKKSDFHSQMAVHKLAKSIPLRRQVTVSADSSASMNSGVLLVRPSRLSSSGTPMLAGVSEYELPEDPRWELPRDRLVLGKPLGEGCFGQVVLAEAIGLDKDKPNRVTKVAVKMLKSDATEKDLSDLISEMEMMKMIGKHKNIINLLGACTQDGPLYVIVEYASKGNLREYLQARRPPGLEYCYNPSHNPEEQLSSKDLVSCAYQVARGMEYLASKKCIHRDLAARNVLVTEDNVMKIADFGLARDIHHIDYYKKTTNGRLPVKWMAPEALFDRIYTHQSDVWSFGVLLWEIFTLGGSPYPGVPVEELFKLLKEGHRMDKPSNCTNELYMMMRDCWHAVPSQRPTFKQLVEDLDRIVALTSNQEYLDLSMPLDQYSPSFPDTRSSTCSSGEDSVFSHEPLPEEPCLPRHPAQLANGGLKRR
Description: In order to measure FGFR-1 autophosphorylation, the human FGFR-1 cDNA was stably over-expressed in CHO cells using standard techniques. These cells were grown to confluency in RPMI with 10% fetal bovine serum, the media was replaced with serum-free RPMI and incubation continued for 18 hours prior to stimulation with βFGF (75 ng/ml) for 10 min. at 37° C. in the absence or presence of PTK inhibitors in a concentration range of 0.1-30 μM. Cell lysates were prepared under the same conditions as described above for the EGFR assay. Lysates were incubated with a monoclonal antibody directed against the FGFR-1 extracellular domain (MAb 1H9D3 which was prepared at COR) and the immunoprecipitated receptor was subjected to SDS-PAGE and Western blot analysis with 4G10 horse radish peroxidase conjugated antiphosphotyrosine antibodies (UBI) and detection was done by chemiluminescence (Amersham).

Protein Kinase C (PKC) = assay: Protein Kinase C assay (non-radioactive); conditions: 40 μM
human alpha PDGFR = target: T2, human alpha PDGFR (Homo sapiens, UniProt P16234); assay: alpha PDGFR autophosphorylation in 32D-αR cells; type: cell-based; conditions: for inhibition of protein kinase activity of αPDGFR: compounds of Table 1B, evaluated similar to Example 1
T2 construct: expressed in transfected cells; host or cells: 32D-αR (mouse hematopoietic cell line 32D)
T2 sequence (P16234 24-1089): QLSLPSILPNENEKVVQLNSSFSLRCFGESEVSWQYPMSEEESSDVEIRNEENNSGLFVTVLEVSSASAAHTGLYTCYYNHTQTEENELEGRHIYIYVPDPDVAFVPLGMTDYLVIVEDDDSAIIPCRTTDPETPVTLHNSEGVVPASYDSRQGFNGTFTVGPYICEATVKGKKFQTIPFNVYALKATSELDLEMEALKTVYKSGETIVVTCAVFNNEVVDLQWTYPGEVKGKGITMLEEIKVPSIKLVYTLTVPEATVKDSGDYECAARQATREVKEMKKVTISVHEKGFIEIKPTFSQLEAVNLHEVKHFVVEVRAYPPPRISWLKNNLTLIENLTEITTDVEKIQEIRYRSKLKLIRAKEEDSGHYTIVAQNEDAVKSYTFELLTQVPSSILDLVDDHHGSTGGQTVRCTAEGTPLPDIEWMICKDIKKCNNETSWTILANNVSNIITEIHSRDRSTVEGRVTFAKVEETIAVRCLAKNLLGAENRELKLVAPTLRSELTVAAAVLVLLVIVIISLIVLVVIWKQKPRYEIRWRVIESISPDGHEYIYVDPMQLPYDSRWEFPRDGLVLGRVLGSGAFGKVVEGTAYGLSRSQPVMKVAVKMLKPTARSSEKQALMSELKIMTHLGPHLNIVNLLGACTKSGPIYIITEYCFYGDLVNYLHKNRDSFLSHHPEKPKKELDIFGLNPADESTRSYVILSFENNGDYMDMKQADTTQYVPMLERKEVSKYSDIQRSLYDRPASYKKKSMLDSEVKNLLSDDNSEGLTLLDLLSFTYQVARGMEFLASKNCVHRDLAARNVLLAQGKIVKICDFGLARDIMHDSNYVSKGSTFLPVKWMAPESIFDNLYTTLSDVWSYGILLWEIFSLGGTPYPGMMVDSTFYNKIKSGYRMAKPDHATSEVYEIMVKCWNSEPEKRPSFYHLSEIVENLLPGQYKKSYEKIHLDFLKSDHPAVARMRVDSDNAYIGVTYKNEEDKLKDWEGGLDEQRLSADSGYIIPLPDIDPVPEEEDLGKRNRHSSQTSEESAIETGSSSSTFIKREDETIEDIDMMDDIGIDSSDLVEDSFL
Source text: The stimulation of cell proliferation by growth factors such as PDGF, FGF and EGF is dependent upon their induction of autophosphorylation of each of their respective receptor's tyrosine kinases. Therefore, the ability of a PTK inhibitor to block cellular proliferation induced by these growth factors is directly correlated with its ability to block receptor autophosphorylation. To measure alpha PDGFR autophosphorylation a previously described mouse hematopoietic cell line, 32D-αR, which had been engineered to overexpresses the human alpha PDGFR was used. These cells were grown in suspension to 10^6 cells/ml in RPMI (Gibco BRL) media containing 10% fetal bovine serum and 5% WEHI conditioned media (tissue culture media conditioned by WEHI cells available from ATCC) as previously described. The cells were pelleted by low speed centrifugation and resuspended in serum-free RPMI prior to distribution at 500,000 cells/well in 96 well conical bottom microtiter plates (Falcon). Compounds (0.01-30 μM) were added to the wells at room temperature 15 minutes prior to the addition of PDGF AA (15 ng/ml) and the incubation was continued on ice for 90 minutes in a final incubation volume of 100 μl. The cells were then pelleted at 2000 rpm for 10 minutes at 4° C. and 50 μl of freshly prepared lysis buffer (20 mM Tris at pH 7.3, 150 mM NaCl, 1% Triton X-100, 1 mM phenylmethyl-sulfonyl fluoride (PMSF), 1 mM sodium orthovanadate, […] and 10 mg/ml leupeptin) was added directly to each well, incubation was continued for 10 minutes on ice and cell lysis was facilitated by vigorous agitation on a plate shaker. The cell lysates were cleared by centrifugation at 2,000 rpm for 10 minutes prior to analysis.
In a separate microtiter plate, monoclonal antibodies (prepared at COR Therapeutics, Inc.) directed against the extracellular domain of the alpha PDGFR (MAb αR10) or the beta PDGFR (MAb 1B5B11) were immobilized by incubating 0.5 μg of antibody per well at 4° C. for 18 hours in 23 mM Tris at pH 8.0, 68 mM NaCl, 14 mM ammonium bicarbonate and 0.01% sodium azide. Unbound antibody was removed and the wells were blocked with 25 mM N-(2-hydroxyethyl)piperazine-N'-(2-ethanesulfonic acid) (HEPES) pH 7.6, 100 mM NaCl, and 0.2% Tween 20 just prior to the addition of cell lysate that had been diluted 1:2 in binding buffer (blocking buffer with 0.3% gelatin). 32D-αR or HR5-βR cell lysate was incubated with immobilized MAb αR10 or MAb 1B5B11, respectively, for 2 hours at room temperature and wells were washed 3 times with 200 μl of wash buffer (phosphate buffered saline "PBS", 0.01% Tween 20). […] Product formation was monitored at 650 nm using a microtiter plate reader (Molecular Devices).

HS27 cells = assay: inhibition of cell proliferation under normal tissue culture conditions, HS27; conditions: Homo sapiens, HS27, 96 h, read-out: IC50 HS27
human beta PDGFR = human beta PDGFR (Homo sapiens, UniProt P09619); assay: beta PDGFR autophosphorylation in HR5-βR cells; conditions: for inhibition of protein kinase activity of βPDGFR: compounds of Table 1B, evaluated similar to Example 1
Sequence of human beta PDGFR (P09619 33-1106): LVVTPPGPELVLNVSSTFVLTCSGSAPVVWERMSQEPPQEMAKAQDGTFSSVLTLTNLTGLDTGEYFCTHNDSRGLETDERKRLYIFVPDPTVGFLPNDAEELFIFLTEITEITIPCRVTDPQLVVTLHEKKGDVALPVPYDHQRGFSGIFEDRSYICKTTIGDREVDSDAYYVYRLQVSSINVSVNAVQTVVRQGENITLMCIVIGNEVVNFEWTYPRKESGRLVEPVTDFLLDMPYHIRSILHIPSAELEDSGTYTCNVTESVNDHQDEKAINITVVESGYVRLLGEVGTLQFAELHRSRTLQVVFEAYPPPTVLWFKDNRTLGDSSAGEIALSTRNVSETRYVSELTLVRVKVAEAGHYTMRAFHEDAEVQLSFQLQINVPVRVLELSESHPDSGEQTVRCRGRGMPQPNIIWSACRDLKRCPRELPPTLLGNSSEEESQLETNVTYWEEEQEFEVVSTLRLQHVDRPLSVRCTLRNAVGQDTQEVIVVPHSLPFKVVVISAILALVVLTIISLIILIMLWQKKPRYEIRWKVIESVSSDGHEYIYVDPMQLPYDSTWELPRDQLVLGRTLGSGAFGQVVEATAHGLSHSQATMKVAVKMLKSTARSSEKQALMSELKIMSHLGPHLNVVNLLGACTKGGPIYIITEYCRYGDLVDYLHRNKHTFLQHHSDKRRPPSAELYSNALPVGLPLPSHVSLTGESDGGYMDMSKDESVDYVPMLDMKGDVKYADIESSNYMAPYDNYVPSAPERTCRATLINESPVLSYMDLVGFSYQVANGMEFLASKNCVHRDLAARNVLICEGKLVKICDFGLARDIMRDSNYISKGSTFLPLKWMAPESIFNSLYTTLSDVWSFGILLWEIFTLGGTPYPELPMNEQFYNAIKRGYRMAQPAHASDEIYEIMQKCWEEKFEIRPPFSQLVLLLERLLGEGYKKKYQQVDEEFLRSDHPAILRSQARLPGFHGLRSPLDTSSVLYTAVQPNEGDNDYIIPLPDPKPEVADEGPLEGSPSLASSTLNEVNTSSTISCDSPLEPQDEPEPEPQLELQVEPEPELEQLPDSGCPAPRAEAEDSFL

HR5-βR cells = assay: inhibition of cell proliferation under normal tissue culture conditions, HR5-βR; conditions: for IC50: Cricetulus griseus
Protein Kinase A (PKA) = Protein Kinase A (PKA) (Homo sapiens, UniProt P17612); assay: Protein Kinase A assay (non-radioactive)
HS68 cells = assay: inhibition of cell proliferation under normal tissue culture conditions, HS68; conditions: Homo sapiens, Hs68, 96 h, read-out: IC50 HS68
32D-αR cells = assay: PDGF induced proliferation ([3H]thymidine incorporation) in 32D-αR cells; type: cell-based; conditions: Mus musculus
Description: Briefly, 32D-αR cells were grown in interleukin 3 (IL-3)-conditioned RPMI media with 10% fetal bovine serum and washed 2 times with RPMI with 10% fetal bovine serum, resuspended at 5×10^5 cells/ml in the same media and then dispensed at 250 μl/well in 24 well plates (Falcon). […] The cells were incubated for 43 hours followed for a further 3 hour incubation with [^3 H]thymidine (10 μCi/well). The cells are then harvested with an automated cell harvester, filters are placed in liquid scintillation mixture and counted in a β counter.

WS1 cells = assay: inhibition of cell proliferation under normal tissue culture conditions, WS1; conditions: Homo sapiens, WS1, 96 h, read-out: IC50 WS1
EGFR = EGFR (Homo sapiens, UniProt P00533); assay: EGFR autophosphorylation in MDA MB 468 cells; type: cell-based; conditions: EGF 100 ng/ml
Sequence of EGFR (P00533 25-1210): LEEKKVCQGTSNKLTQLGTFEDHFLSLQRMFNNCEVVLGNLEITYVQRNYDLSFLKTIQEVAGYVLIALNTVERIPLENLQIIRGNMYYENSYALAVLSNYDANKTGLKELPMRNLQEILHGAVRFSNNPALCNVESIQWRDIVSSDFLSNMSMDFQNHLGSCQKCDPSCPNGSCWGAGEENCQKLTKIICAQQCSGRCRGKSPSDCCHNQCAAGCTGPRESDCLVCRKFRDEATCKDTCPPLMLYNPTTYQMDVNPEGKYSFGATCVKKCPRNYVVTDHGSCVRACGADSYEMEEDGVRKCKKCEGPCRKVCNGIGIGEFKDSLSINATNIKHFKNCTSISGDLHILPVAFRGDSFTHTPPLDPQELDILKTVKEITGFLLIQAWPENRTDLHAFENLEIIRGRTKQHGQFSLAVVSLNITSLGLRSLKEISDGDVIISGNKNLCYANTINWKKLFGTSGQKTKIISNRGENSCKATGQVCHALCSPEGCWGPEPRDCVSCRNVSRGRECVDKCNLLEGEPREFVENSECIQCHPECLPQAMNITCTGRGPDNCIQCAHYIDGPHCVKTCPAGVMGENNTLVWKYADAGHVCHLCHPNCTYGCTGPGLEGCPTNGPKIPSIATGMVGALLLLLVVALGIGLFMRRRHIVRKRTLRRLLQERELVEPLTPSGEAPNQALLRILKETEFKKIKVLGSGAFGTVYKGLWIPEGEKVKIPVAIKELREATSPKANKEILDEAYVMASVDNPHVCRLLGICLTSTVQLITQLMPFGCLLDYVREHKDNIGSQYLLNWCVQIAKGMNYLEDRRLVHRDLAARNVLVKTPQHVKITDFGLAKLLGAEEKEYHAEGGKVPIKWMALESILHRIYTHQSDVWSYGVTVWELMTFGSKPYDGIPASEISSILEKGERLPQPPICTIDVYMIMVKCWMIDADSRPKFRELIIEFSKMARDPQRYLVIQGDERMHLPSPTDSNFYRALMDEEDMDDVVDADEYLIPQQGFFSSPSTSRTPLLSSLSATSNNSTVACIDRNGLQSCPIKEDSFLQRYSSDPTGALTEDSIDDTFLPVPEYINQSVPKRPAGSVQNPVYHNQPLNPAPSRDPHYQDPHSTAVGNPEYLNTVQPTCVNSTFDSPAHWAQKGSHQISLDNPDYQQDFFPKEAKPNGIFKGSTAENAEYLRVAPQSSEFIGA

SMILES: CN[C@@H]1C[C@H]2O[C@@](C)([C@@H]1OC)n1c3ccccc3c3c4c(c5c6ccccc6n2c5c31)C(=O)NC4 [Staurosporin, reference compound]
growth of all of the human cell lines ([1]; 0.01 μM): completely blocked
potency on src kinase activity compared with PDGFR kinase activity (src-kinase): equally or more potent at inhibiting src kinase activity as they are PDGFR kinase activity

SMILES: O=C(Nc1cc(-c2ccccc2)[nH]n1)c1ccccc1 [Compound 1, 3-benzoylamino-5-phenylpyrazole]
IC50 (CCD18 cells): > 30000 nM
IC50 (human FGFR-1; Table 2, autophosphorylation, CHO cells, βFGF 75 ng/ml): > 30000 nM
inhibition of FGFR-1 autophosphorylation (human FGFR-1; concentrations as high as 30 μM): no detectable inhibition
reduction in PKC activity (Protein Kinase C (PKC)): < 50%
IC50 (human alpha PDGFR; Table 2, autophosphorylation, 32D-αR cells, PDGF AA 15 ng/ml, read-out: IC50 αPDGFR): 170 nM
inhibition of alpha PDGFR autophosphorylation (human alpha PDGFR; compared with beta receptor): inhibit alpha PDGFR autophosphorylation over the same concentration range as that observed for the beta receptor
IC50 (HS27 cells): > 30000 nM
inhibition at 30 µM ([1]; Homo sapiens, 96 h, read-out: decrease in cell growth of human cell lines): 10 to 20%
decrease in cell growth of human cell lines ([1]; concentrations up to 10 μM): no decrease in cell growth
IC50 (human beta PDGFR): 220 nM
IC (maximal) (human beta PDGFR; read-out: concentration at which inhibition of beta PDGFR autophosphorylation was maximal): 5 µM
IC50 (src-kinase): 8000 nM
potency on src kinase activity compared with PDGFR kinase activity (src-kinase): selective for inhibiting PDGFR kinase activity
IC50 (HR5-βR cells; 96 h, read-out: IC50 HRS-βR): 28000 nM
IC50 (Protein Kinase A (PKA)): > 40000 nM
inhibition at 40 µM (Protein Kinase A (PKA); read-out: reduction in PKA activity): < 50%
IC50 (HS68 cells): > 30000 nM
IC50 (32D-αR cells; read-out: concentration blocking PDGF induced thymidine incorporation by 50%): 700 nM
IC100 (32D-αR cells; PDGF AA 30 ng/ml, FIG. 2, read-out: concentrations at which mitogenicity was completely inhibited): > 1 µM
IC50 (WS1 cells): > 30000 nM

inhibition of protein kinase activity of αPDGFR (human alpha PDGFR): exhibited the best activities
inhibition of protein kinase activity of βPDGFR (human beta PDGFR): exhibited the best activities
SMILES: O=C(Nc1cc(-c2ccc(Cl)cc2)n[nH]1)c1ccccc1 [Compound 45]

SMILES: COC(=O)[C@@]1(O)C[C@H]2O[C@]1(C)n1c3ccccc3c3c4c(c5c6ccccc6n2c5c31)C(=O)NC4 [Compound K252a]
IC50 (src-kinase; read-out: IC50 src-kinase, recombinant c-src, 50 μM ATP): 20 nM
IC50 (src-kinase; read-out: src kinase IC50, recombinant c-src): 20 nM
potency on src kinase activity compared with PDGFR kinase activity (src-kinase): equally or more potent at inhibiting src kinase activity as they are PDGFR kinase activity
IC50 (EGFR): 1000 nM
HR5-βR growth inhibition compared with inhibition of PDGFR phosphorylation (HR5-βR cells): lower concentrations than those required to inhibit PDGFR phosphorylation
IC50 (HR5-βR cells; 96 h, read-out: IC50 HRS-βR): 130 nM
IC50 (HR5-βR cells; read-out: IC50 HR5-βR cell growth): 130 nM

inhibition of protein kinase activity of αPDGFR (human alpha PDGFR): exhibited the best activities
inhibition of protein kinase activity of βPDGFR (human beta PDGFR): exhibited the best activities
SMILES: O=C(Nc1cc(-c2cccs2)n[nH]1)c1ccccc1 [Compound 46]
